Source: patent US6316495A, “Method for inhibition of retroviral replication” (priority 1999, dated 2001)

What was measured:
Type in all cases: biochemical
[1] = system: HIV reverse transcriptase; experiment: HIV reverse transcriptase activity with ADPRT, poly-ADP-ribosylated ADPRT and drug inhibitors of poly-ADP-ribosylation (FIG. 3, Example 4); settings: for HIV reverse transcriptase activity: absence of ADPRT
Procedure: Reverse transcriptase activity assay conditions were as described in Example 1. NAD was added in a concentration of 62.5 μM and ADPRT in a concentration of 0.5 μM. Inhibitors 6-amino-1,2-benzopyrone (6-ABP) or 5-iodo-6-amino-1,2-benzopyrone (5-I-6-ABP) were added in concentrations 1000 μM, and 400 μM, respectively.
(§1) The medium (coctail) comprises 50 mM Tris-HCl pH 8.0; 60 mM KCl; 7 mM MgCl2; 40 mM DTT (dithiothreitol) 2 mM GSH (glutathione); 60 μg/ml whole histones/ml (Grade A, Sigma, St. Louis); poly (rA) oligo (dT)12-18 (Pharmacia, Piscataway, N. J.) and 50 μM M(0.1 μCalif.) [alfa ^32 P]TTP (ICN, Irvine, CA.) (Reverse transcriptase uses poly(rA) as template and the annealed oligo(dT) as primer for incorporating the labeled TTP).
(§2) The reverse polymerization was started by adding 0.02 μg of recombinant reverse transcriptase protein (ERC BioServices, Rockville, Md.) into 50 μl of coctail. The reaction mixture incubated at 25° C. for 5 minutes.
(§3) The reaction was stopped by adding 2 ml of ice cold 20% trichloroacetic acid and the precipitated nucleic acids were filtered onto glass fiber filters, dried with ethanol and their incorporated radioactivity counted in a liquid scintillation counter.
Using generally the reverse transcriptase procedure described in Example 1, three groups of samples were prepared. The first group contained the coctail described in the Example 1 containing poly (rA).cndot.oligo (dT)12-18 as a template and drugs 6-ABP or 5-I-6-ABP in concentration 1,000 μM and 400 μM, respectively, without the presence of ADPRT.
The second group contained the same ingredients as group 1 but ADPRT at a concentration to 0.5 μM was added to all samples.
The third group contained the same ingredients as group 2 but NAD in a concentration of 62.5 μM was added.

[2] = system: recombinant human HIV reverse transcriptase; experiment: Activation of HIV reverse transcriptase by auto-(ADP-ribosylated) ADPRT (FIG. 2, Example 3); settings: 0.5 μM ADPRT, no NAD
Procedure: Such abrogation and its time dependency is further illustrated in FIG. 2 wherein the activation of HIV reverse transcriptase by auto-ADP-ribosylated ADPRT is expressed as % of reverse transcriptase activity. The experimental conditions are as described in Example 3. […] Samples in columns 3-5 were incubated for time periods as indicated.
as §1, with “TTP). […]” for “TTP).”
The reaction was stopped by adding 2 ml of ice cold 20% trichloroacetic acid and the precipitated nucleic acids were filtered onto glass fiber filters, dried with ethanol and their incorporated radioactivity counted in a liquid scintillation counter. […]
The mixture was incubated at 25° C. for 5, 10 and 25 minutes, then the recombinant reverse transcriptase was added and the mixture was incubated for additional 5 minutes. The reaction was stopped, as described above, the precipitate was filtered and radioactivity counted.

[3] = system: Human recombinant HIV reverse transcriptase; experiment: Effect of unmodified and ADP-ribosylated ADPRT on HIV reverse transcriptase activity (FIG. 1, Example 2)
Procedure: The basic assay system for measurement of reverse transcriptase activity is described in Example 1. Human recombinant HIV reverse transcriptase used in the assay was obtained from HIV, ERC Bioservices. ADPRT used in this experiment is highly purified ADPRT protein prepared according to Anal. Biochem., 167:160 (1987). ADPRT was added to the reverse transcriptase assay system at various concentrations ranging from 0.01 to 1 μM. When the effect of […], pre-ADP-ribosylated ADPRT was assayed, the ADPRT enzyme was incubated with NAD and cofactors according to FEBS Letters, 212:73 (1987). The poly ADP-ribosylated ADPRT was isolated by centricon ultrafiltration and added in various concentration as shown in FIG. 1.
as §1, §2, §3
A small amount (300 μg) of ADPRT (0.5 μM) of final concentration was incubated with 100 mM NAD in 3 ml of 25 mM Tris-HCl (pH 7.4), 0.3% Tween 20 at 25° C. for three hours to render the protein auto-poly (ADP-ribosyl)ated, then concentrated to 3 mg/ml. Using generally the reverse transcriptase assay conditions as described in Example 1, the effect of automodified and unmodified ADPRT was monitored.

**Q.** With `Nc1ccc2oc(=O)ccc2c1` [6-ABP, 6-amino-1,2-benzopyrone] as the compound, how does the reverse transcriptase activity ([1]; 0.5 μM ADPRT + 62.5 μM NAD + 6-ABP 1000 μM) read?
**A.** The reverse transcriptase activity was “about 60%”.

**Q.** And the “activity of reverse transcriptase” value ([1]; 0.5 μM ADPRT + 6-ABP 1000 μM)?
**A.** Its value is “only very slightly”.

**Q.** And the “activity of reverse transcriptase” value ([1]; 0.5 μM ADPRT + 6-ABP 1000 μM, 1000 µM)?
**A.** The value was “about 50%”.

**Q.** What about the “HIV reverse transcriptase activity” value ([1]; 6-ABP 1000 μM) of the same compound?
**A.** The value was “did not affect”.

**Q.** What does the source list for `Nc1ccc2oc(=O)ccc2c1I` [5-I-6-ABP, 5-iodo-6-amino-1,2-benzopyrone]?
**A.** activity of reverse transcriptase ([1]; 0.5 μM ADPRT + 62.5 μM NAD + 5-I-6-ABP 400 μM (column 9)): the same as the one seen in column 6; activity of reverse transcriptase ([1]; 0.5 μM ADPRT + 5-I-6-ABP 400 μM): only very slightly; activity of reverse transcriptase ([1]; 0.5 μM ADPRT + 5-I-6-ABP 400 μM, listed as 5-I-ABP, 400 µM): about 50%; HIV reverse transcriptase activity ([1]; 5-I-6-ABP 400 μM): did not affect

**Q.** What does the source list for “adenosine diphosphoribosyl transferase [ADPRT]”?
**A.** depression/inhibition of reverse transcriptase activity [2]: about 50%; activity of reverse transcriptase ([1]; 0.5 μM pure ADPRT only (column 4)): about 50%; inhibition of reverse transcriptase activity ([3]; 0.05 μM pure ADPRT): 10%; effect on reverse transcription (FIG. 1 summary) ([3]; 0.01 to 1 μM added to RT assay): inhibits RT in a concentration-dependent manner; inhibition of reverse transcriptase ([3]; around 1-1.3 μM ADPRT): 75-80%; activity of reverse transcriptase ([3]; around 1-1.3 μM ADPRT, control 100%): about 20%
